Where two headings read alike, the source gives them in different places.

As usually defined, the inhibition is the share of the control response that was lost under treatment.

Assay [1] has as its target T1, BaF3 cell line transfected with the oncogenic fusion protein NPM-ALK and expressing the mutation L1196M (Homo sapiens, UniProt Q9UM73, L1196M, cells depend on it).
T1 construct: fused on or other part: P06748 (Nucleophosmin)
As to the kind of experiment: Tritiated thymidine uptake cell proliferation assay, BaF3 NPM-ALK L1196M. In kind it is cell-based, murine. As to conditions: for GI50: averaged IC50 values of cell proliferation inhibition, class letters, read-out: IC50 BaF3 NPM-ALK L1196M cells; for % Inhibition BaF3 NPM-ALK L1196M cells: percentage of inhibition of cell proliferation at 200 nM. The method, then: (§1) Method: Tritiated Thymidine Uptake Cell Proliferation Assay
(§2) The following procedure was used with parent untransformed BaF3 cells, BaF3 cells transformed with the oncogenic fusion protein NPM/ALK, NPM/ALK positive SUDHL-1 cells, NPM/ALK positive SUPM2, ALK-negative HL60 cells, NPM/ALK positive KARPAS-299 cells. The parent untransformed BaF3 cells or Alk-negative HL60 cells are used as controls. Cells were seeded in U-bottomed 96-well plates at 10000 cells/well in a volume of 100 μl in supplemented medium. In the case of the parent untransformed BaF3 cells, the medium was supplemented with IL-3. Serial dilutions of inhibitors were added to the appropriate wells and volumes adjusted to 200 μl. Controls were treated with the equivalent volume of vehicle, DMSO, alone. Plates were incubated at 37° C. for 72 h. 3[H]-thymidine (1 μCi/well) was added for the last 16 h of incubation. Cells were harvested on to paper filters and 3[H]-thymidine incorporation was measured using a scintillation counter (1430 MicroBeta, Wallac, Turku, Finland). The 50% inhibitory concentration (IC50) was defined as the concentration of inhibitor, expressed in nanomolar units, that gave a 50% decrease in 3[H]-thymidine uptake compared with controls.
In Table 2 are listed results for selected examples of compounds of the invention, reported as percentage of inhibition of cell proliferation at 200 nM, obtained from cellular assays in BaF3 cell line transfected with the oncogenic fusion protein NPM-ALK and expressing the mutation L1196M.
In Table 3 are listed averaged IC50 values of cell proliferation inhibition for selected examples of compounds of the present invention, obtained from cellular assays in BaF3 cell line transfected with the oncogenic fusion protein NPM-ALK and expressing the mutation L1196M. The letter “A” designates an IC50 value between 1 nM and 50 nM, the letter “B” designates an IC50 value between 50 nM and 100 nM, the letter “C” designates an IC50 value between 100 and 500 nM.

In assay [2] the test system is Karpas 299 lymphoma cell line positive for the oncogenic fusion protein NPM-ALK. The experiment in a line: Tritiated thymidine uptake cell proliferation assay, Karpas 299. The settings on record: Homo sapiens. The format is cell-based. The method, then: as §1, §2
In Table 1 are listed results for selected examples of compounds of the invention, reported as percentage of inhibition of cell proliferation at 200 nM, obtained from cellular assays in Karpas 299 lymphoma cell line positive for the oncogenic fusion protein NPM-ALK.

The mark [3] stands for this setting: KARPAS-299, percentage of inhibition of cell proliferation at 200 nM, read-out: % Inhibition Karpas 299 cells.

T1 sequence (Q9UM73 whole entry L1196M, the tested form may be a part): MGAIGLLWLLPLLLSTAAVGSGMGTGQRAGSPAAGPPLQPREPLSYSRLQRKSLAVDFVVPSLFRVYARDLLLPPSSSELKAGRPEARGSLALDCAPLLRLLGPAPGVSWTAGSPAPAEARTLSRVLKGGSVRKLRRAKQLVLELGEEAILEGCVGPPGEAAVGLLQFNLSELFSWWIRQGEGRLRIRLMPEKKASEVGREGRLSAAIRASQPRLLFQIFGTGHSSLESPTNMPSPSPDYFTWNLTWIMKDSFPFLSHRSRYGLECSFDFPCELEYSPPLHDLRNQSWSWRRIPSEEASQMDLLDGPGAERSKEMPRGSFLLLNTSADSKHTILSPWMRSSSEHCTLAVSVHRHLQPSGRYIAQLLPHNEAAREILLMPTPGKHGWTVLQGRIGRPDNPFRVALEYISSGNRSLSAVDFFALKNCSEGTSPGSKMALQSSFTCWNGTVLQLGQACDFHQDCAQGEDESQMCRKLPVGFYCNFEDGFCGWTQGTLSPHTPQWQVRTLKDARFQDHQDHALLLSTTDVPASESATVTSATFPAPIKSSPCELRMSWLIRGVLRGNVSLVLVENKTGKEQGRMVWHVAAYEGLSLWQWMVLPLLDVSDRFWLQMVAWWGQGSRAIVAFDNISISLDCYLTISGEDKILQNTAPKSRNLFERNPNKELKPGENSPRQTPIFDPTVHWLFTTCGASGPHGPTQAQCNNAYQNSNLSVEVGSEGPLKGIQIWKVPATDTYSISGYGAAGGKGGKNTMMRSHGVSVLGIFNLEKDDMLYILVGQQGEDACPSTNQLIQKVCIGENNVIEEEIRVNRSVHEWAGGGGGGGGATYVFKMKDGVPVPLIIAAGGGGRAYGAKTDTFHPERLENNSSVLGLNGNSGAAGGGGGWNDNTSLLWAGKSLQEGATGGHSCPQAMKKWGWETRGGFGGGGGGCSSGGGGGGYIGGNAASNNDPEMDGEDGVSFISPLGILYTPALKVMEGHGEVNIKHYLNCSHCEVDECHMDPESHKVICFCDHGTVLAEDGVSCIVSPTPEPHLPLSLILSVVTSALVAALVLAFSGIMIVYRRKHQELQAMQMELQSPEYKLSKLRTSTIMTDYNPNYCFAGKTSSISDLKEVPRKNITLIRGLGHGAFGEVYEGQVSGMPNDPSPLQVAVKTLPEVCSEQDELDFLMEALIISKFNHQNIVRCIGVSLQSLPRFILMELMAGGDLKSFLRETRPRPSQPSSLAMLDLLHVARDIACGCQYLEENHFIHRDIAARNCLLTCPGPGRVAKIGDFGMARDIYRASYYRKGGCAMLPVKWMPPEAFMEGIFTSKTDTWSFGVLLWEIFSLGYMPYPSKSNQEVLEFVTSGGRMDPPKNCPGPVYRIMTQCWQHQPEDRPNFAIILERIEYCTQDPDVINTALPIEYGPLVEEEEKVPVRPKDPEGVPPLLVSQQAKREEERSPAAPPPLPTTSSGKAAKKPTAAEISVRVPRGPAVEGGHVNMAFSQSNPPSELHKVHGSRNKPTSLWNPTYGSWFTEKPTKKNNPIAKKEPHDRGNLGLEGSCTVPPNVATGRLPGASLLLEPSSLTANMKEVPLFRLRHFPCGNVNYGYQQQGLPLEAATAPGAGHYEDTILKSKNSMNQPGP

In the case of `Cc1cc(O)ccc1-c1cc2[nH]nc(NC(=O)c3ccc(N4CCN(C)CC4)cc3)c2cc1Cc1cc(F)cc(F)c1` [Example 34, N-[5-[(3,5-difluorophenyl)methyl]-6-(4-hydroxy-2-methyl-phenyl)-1H-indazol-3-yl]-4-(4-methylpiperazin-1-yl)benzamide], in assay [1], the GI50 was in the range of 1 to 50 nM and the “% Inhibition BaF3 NPM-ALK L1196M cells” value was 100%. Also, the inhibition at 0.2 µM in assay [2] (setting [3]) came out at 100%.
With `Cc1cc(O)ccc1-c1cc2[nH]nc(NC(=O)c3ccc(N4CCN(C)CC4)cc3NC3CCOCC3)c2cc1Cc1cc(F)cc(F)c1` [Example 5, N-[5-[(3,5-difluorophenyl)methyl]-6-(4-hydroxy-2-methyl-phenyl)-1H-indazol-3-yl]-4-(4-methylpiperazin-1-yl)-2-(tetrahydropyran-4-ylamino)benzamide], in assay [1], the GI50 is 1 to 50 nM and the “% Inhibition BaF3 NPM-ALK L1196M cells” value worked out at 100%. Moreover, the inhibition at 0.2 µM in assay [2] (setting [3]) is 100%.
In the case of `CN1CCN(c2ccc(C(=O)Nc3n[nH]c4cc(-c5ccc6[nH]ncc6c5)c(Cc5cc(F)cc(F)c5)cc34)cc2)CC1` [Example 35, N-[5-[(3,5-difluorophenyl)methyl]-6-(1H-indazol-5-yl)-1H-indazol-3-yl]-4-(4-methylpiperazin-1-yl)benzamide], in assay [1], the GI50 fell in the range of 50 to 100 nM and the “% Inhibition BaF3 NPM-ALK L1196M cells” value worked out at 96%. In addition, the inhibition at 0.2 µM in assay [2] (setting [3]) is 100%.
Consider `CN1CCN(c2ccc(C(=O)Nc3n[nH]c4cc(-c5ccc6[nH]ncc6c5)c(Cc5cc(F)cc(F)c5)cc34)c(NC3CCOCC3)c2)CC1` [Example 26, N-[5-[(3,5-difluorophenyl)methyl]-6-(1H-indazol-5-yl)-1H-indazol-3-yl]-4-(4-methylpiperazin-1-yl)-2-(tetrahydropyran-4-ylamino)benzamide], for which, in assay [1], the GI50 lay within 1 to 50 nM and the “% Inhibition BaF3 NPM-ALK L1196M cells” value came to 99%. In addition, the inhibition at 0.2 µM in assay [2] (setting [3]) came to 99%.
Turning to `CN1CCN(c2ccc(C(=O)Nc3n[nH]c4cc(-c5ccc(N)nc5)c(Cc5cc(F)cc(F)c5)cc34)c(NC3CCOCC3)c2)CC1` [Example 11, N-[6-(6-amino-3-pyridyl)-5-[(3,5-difluorophenyl)methyl]-1H-indazol-3-yl]-4-(4-methylpiperazin-1-yl)-2-(tetrahydropyran-4-ylamino)benzamide], in assay [1], the GI50 lay within 50 to 100 nM and the “% Inhibition BaF3 NPM-ALK L1196M cells” value is 88%. In addition, in assay [2] (setting [3]), the inhibition at 0.2 µM was 95%.
The matching figures for `CN1CCN(c2ccc(C(=O)Nc3n[nH]c4cc(-c5cccc(O)c5)c(Cc5cc(F)cc(F)c5)cc34)c(NC3CCOCC3)c2)CC1` [Example 4, N-[5-[(3,5-difluorophenyl)methyl]-6-(3-hydroxyphenyl)-1H-indazol-3-yl]-4-(4-methylpiperazin-1-yl)-2-(tetrahydropyran-4-ylamino)benzamide]: 1 to 50 nM, 99% and 99%.
For `CN1CCN(c2ccc(C(=O)Nc3n[nH]c4cc(-c5ccccc5)c(Cc5cc(F)cc(F)c5)cc34)c(NC3CCOCC3)c2)CC1` [Example 23, N-[5-[(3,5-difluorophenyl)methyl]-6-phenyl-1H-indazol-3-yl]-4-(4-methylpiperazin-1-yl)-2-(tetrahydropyran-4-ylamino)benzamide], in assay [1], the “% Inhibition BaF3 NPM-ALK L1196M cells” value is recorded as 61%. Moreover, in assay [2] (setting [3]), the inhibition at 0.2 µM came out at 71%.
Take `CN1CCN(c2ccc(C(=O)Nc3n[nH]c4cc(-c5cncc(N)c5)c(Cc5cc(F)cc(F)c5)cc34)c(NC3CCOCC3)c2)CC1` [Example 12, N-[6-(5-amino-3-pyridyl)-5-[(3,5-difluorophenyl)methyl]-1H-indazol-3-yl]-4-(4-methylpiperazin-1-yl)-2-(tetrahydropyran-4-ylamino)benzamide]: in assay [1], the GI50 lay within 50 to 100 nM and the “% Inhibition BaF3 NPM-ALK L1196M cells” value amounted to 99%. Also, in assay [2] (setting [3]), the inhibition at 0.2 µM is 100%.
For the compound `CN1CCN(c2ccc(C(=O)Nc3n[nH]c4cc(-c5cc(O)cc(F)c5)c(Cc5cc(F)cc(F)c5)cc34)c(NC3CCOCC3)c2)CC1` [Example 19, N-[5-[(3,5-difluorophenyl)methyl]-6-(3-fluoro-5-hydroxy-phenyl)-1H-indazol-3-yl]-4-(4-methylpiperazin-1-yl)-2-(tetrahydropyran-4-ylamino)benzamide], in assay [1], the GI50 lay within 50 to 100 nM and the “% Inhibition BaF3 NPM-ALK L1196M cells” value is recorded as 100%. For the same compound, in assay [2] (setting [3]), the inhibition at 0.2 µM came to 99%.
For `CN1CCN(c2ccc(C(=O)Nc3n[nH]c4cc(-c5cncnc5)c(Cc5cc(F)cc(F)c5)cc34)c(NC3CCOCC3)c2)CC1` [Example 27, N-[5-[(3,5-difluorophenyl)methyl]-6-(pyrimidin-5-yl)-1H-indazol-3-yl]-4-(4-methylpiperazin-1-yl)-2-(tetrahydropyran-4-ylamino)benzamide], in assay [1], the “% Inhibition BaF3 NPM-ALK L1196M cells” value is reported as 62%. The inhibition at 0.2 µM in assay [2] (setting [3]) amounted to 87%.
In the case of `Cc1ccc(O)cc1-c1cc2[nH]nc(NC(=O)c3ccc(N4CCN(C)CC4)cc3NC3CCOCC3)c2cc1Cc1cc(F)cc(F)c1` [Example 7, N-[5-[(3,5-difluorophenyl)methyl]-6-(5-hydroxy-2-methyl-phenyl)-1H-indazol-3-yl]-4-(4-methylpiperazin-1-yl)-2-(tetrahydropyran-4-ylamino)benzamide], in assay [1], the GI50 is 1 to 50 nM and the “% Inhibition BaF3 NPM-ALK L1196M cells” value stood at 100%. In addition, the inhibition at 0.2 µM in assay [2] (setting [3]) came out at 93%.
Regarding `Cc1cc(N)ncc1-c1cc2[nH]nc(NC(=O)c3ccc(N4CCN(C)CC4)cc3NC3CCOCC3)c2cc1Cc1cc(F)cc(F)c1` [Example 14, N-[6-(6-amino-4-methyl-3-pyridyl)-5-[(3,5-difluorophenyl)methyl]-1H-indazol-3-yl]-4-(4-methylpiperazin-1-yl)-2-(tetrahydropyran-4-ylamino)benzamide], the “% Inhibition BaF3 NPM-ALK L1196M cells” value in assay [1] worked out at 66%. Moreover, the inhibition at 0.2 µM in assay [2] (setting [3]) worked out at 62%.
For `CN1CCN(c2ccc(C(=O)Nc3n[nH]c4cc(-c5cnc6[nH]ccc6c5)c(Cc5cc(F)cc(F)c5)cc34)c(NC3CCOCC3)c2)CC1` [Example 29, N-[5-[(3,5-difluorophenyl)methyl]-6-(1H-pyrrolo[2,3-b]pyridin-5-yl)-1H-indazol-3-yl]-4-(4-methylpiperazin-1-yl)-2-(tetrahydropyran-4-ylamino)benzamide], in assay [1], the GI50 is 50 to 100 nM and the “% Inhibition BaF3 NPM-ALK L1196M cells” value was 98%. Further, in assay [2] (setting [3]), the inhibition at 0.2 µM stood at 100%.
As to `CN1CCN(c2ccc(C(=O)Nc3n[nH]c4cc(-c5ccc6c(c5)C(=O)NC6)c(Cc5cc(F)cc(F)c5)cc34)c(NC3CCOCC3)c2)CC1` [Example 28, N-[5-[(3,5-difluorophenyl)methyl]-6-(3-oxoisoindolin-5-yl)-1H-indazol-3-yl]-4-(4-methylpiperazin-1-yl)-2-(tetrahydropyran-4-ylamino)benzamide], the “% Inhibition BaF3 NPM-ALK L1196M cells” value in assay [1] came to 60%. Also, in assay [2] (setting [3]), the inhibition at 0.2 µM was 55%.
The matching figures for `CN1CCN(c2ccc(C(=O)Nc3n[nH]c4cc(-c5cnc(N)nc5)c(Cc5cc(F)cc(F)c5)cc34)c(NC3CCOCC3)c2)CC1` [Example 10, N-[6-(2-aminopyrimidin-5-yl)-5-[(3,5-difluorophenyl)methyl]-1H-indazol-3-yl]-4-(4-methylpiperazin-1-yl)-2-(tetrahydropyran-4-ylamino)benzamide]: 61% and 93%.
Consider `CN1CCN(c2ccc(C(=O)Nc3n[nH]c4cc(-c5cn[nH]c5)c(Cc5cc(F)cc(F)c5)cc34)c(NC3CCOCC3)c2)CC1` [Example 18, N-[5-[(3,5-difluorophenyl)methyl]-6-(1H-pyrazol-4-yl)-1H-indazol-3-yl]-4-(4-methylpiperazin-1-yl)-2-(tetrahydropyran-4-ylamino)benzamide], for which, in assay [1], the GI50 fell in the range of 100 to 500 nM and the “% Inhibition BaF3 NPM-ALK L1196M cells” value came to 97%. The inhibition at 0.2 µM in assay [2] (setting [3]) came out at 100%.
`COCCNc1cc(N2CCN(C)CC2)ccc1C(=O)Nc1n[nH]c2cc(-c3ccc(O)c(F)c3)c(Cc3cccc(F)c3)cc12` [Example 42, N-[6-(3-fluoro-4-hydroxy-phenyl)-5-[(3-fluorophenyl)methyl]-1H-indazol-3-yl]-2-(2-methoxyethylamino)-4-(4-methylpiperazin-1-yl)benzamide]: in assay [1], the GI50 fell in the range of 50 to 100 nM and the “% Inhibition BaF3 NPM-ALK L1196M cells” value was 93%. Further, the inhibition at 0.2 µM in assay [2] (KARPAS-299, read-out: % Inhibition Karpas 299 cells) was 100%.

The values are drawn from patent publication US10336707B2, “Heterocyclic derivatives modulating activity of certain protein kinases” (EUDENDRON S.R.L., priority 2014, dated 2019).
